According to patent publication US20120252721A1 (priority 2011, published 2012):

Experiments:
[1] = test system: HCV Con1 subgenomic replicon (GS4.1 cells); test: HCV replicon assay (NS5A ELISA, 72 hrs); assay type: cell-based; settings: Hepatitis C virus
Experimental: Huh-7 cells containing HCV Con1 subgenomic replicon (GS4.1 cells) were grown in Dulbecco's Modified Eagle Medium (DMEM) supplemented with 10% fetal bovine serum (FBS), 2 mM L-glutamine, 110 mg/L sodium pyruvate, 1× non-essential amino acids, 100 U/mL penicillin-streptomycin, and 0.5 mg/mL G418 (Invitrogen). For dose-response testing, the cells were seeded in 96-well plates at 7.5×10^3 cells/well in a volume of 50 μL, and incubated at 37° C./5% CO2. Three hours after plating, 50 μL often 2-fold serial dilutions of compounds (highest concentration, 75 μM) were added, and cell cultures were incubated at 37° C./5% CO2 in the presence of 0.5% DMSO. Alternatively, compounds were tested at a single concentration of 15 μM. In all cases, Huh-7 cells lacking the HCV replicon served as negative control. The cells were incubated in the presence of compounds for 72 hrs after which they were monitored for expression of the NS5A protein by enzyme-linked immunosorbent assay (ELISA). For this, the plates were then fixed for 1 min with acetone/methanol (1:1, v/v), washed twice with phosphate-buffered saline (PBS), 0.1% Tween 20, blocked for 1 hr at room temperature with TNE buffer containing 10% FBS and then incubated for 2 hr at 37° C. with the anti-NS5A mouse monoclonal antibody A-236 (ViroGen) diluted in the same buffer. After washing three times with PBS, 0.1% Tween 20, the cells were incubated 1 hr at 37° C. with anti-mouse immunoglobulin G-peroxidase conjugate in TNE, 10% FBS. After washing as described above, the reaction was developed with O-phenylenediamine (Zymed). The reaction was stopped after 30 min with 2 NH2SO4, and absorbance was read at 492 nm using Sunrise Tecan spectrophotometer. EC50 values were determined from the % inhibition versus concentration data using a sigmoidal non-linear regression analysis based on four parameters with Tecan Magellan software.

in vitro = assay type: cell-based; settings: human; GS4.1 cells, cellular viability
Experimental: For cytotoxicity evaluation, GS4.1 cells were treated with compounds as described above and cellular viability was monitored using the Cell Titer 96 AQeous One Solution Cell Proliferation Assay (Promega). CC50 values were determined from the % cytotoxicity versus concentration data with Tecan Magellan software as described above.

SMILES	EC50 [1] [nM]	CC50 (in vitro) [nM]
COC(=O)N[C@H](C(=O)N1CCC[C@H]1c1ncc(-c2csc3c(-c4cnc([C@@H]5CCCN5C(=O)[C@@H](NC(=O)OC)C(C)C)[nH]4)csc23)[nH]1)C(C)C [Compound A82, ((S)-1-{(S)-2-[5-(6-{2-[(S)-1-((S)-2-methoxycarbonylamino-3-methyl-butyryl)-pyrrolidin-2-yl]-3H-imidazol-4-yl}-thieno[3,2-b]thiophen-3-yl)-1H-imidazol-2-yl]-pyrrolidine-1-carbonyl}-2-methyl-propyl)-carbamic acid methyl ester]	< 1	10000 to 75000
COC(=O)N[C@H](C(=O)N1CCC[C@H]1C(=O)Nc1cn2cc(-c3ccc(NC(=O)CNC(=O)[C@H](NC(=O)OC(C)(C)C)c4ccccc4)cc3)sc2n1)C(C)C [Compound A147]	10 to 100	> 75000
COC(=O)N[C@H](C(=O)N1CCC[C@H]1c1ncc(-c2ccc(-c3cn4cc(NC(=O)[C@@H]5CCCN5C(=O)[C@H](NC(=O)OC)c5ccccc5)nc4s3)cc2)[nH]1)C(C)C [Compound A30, (S,S,S,R)-[1-(2-{5-[4-(6-{[1-(2-methoxycarbonylamino-2-phenyl-acetyl)-pyrrolidin-2-carbonyl]-amino}-imidazo[2,1-b]thiazol-2-yl)-phenyl]-1H-imidazol-2-yl}-pyrrolidine-1-carbonyl)-2-methyl-propyl]-carbamic acid methyl ester]	< 1	> 75000
CC(C)(C)OC(=O)N1CCCC1c1ncc(-c2cn3cc(-c4ccc(Cl)cc4)sc3n2)[nH]1 (stereo not shown) [Compound A152]	> 100	10000 to 75000
COC(=O)N[C@H](C(=O)N1CCCC1c1ncc(-c2cc3sc(-c4ncc(-c5c[nH]c([C@@H]6CCCN6C(=O)[C@@H](NC(=O)OC)C(C)C)n5)s4)cc3s2)[nH]1)C(C)C (stereo partly shown) [Compound A130]	< 1	> 75000
CC(C)(C)OC(=O)N[C@@H](C(=O)N1CCC[C@H]1C(=O)Nc1cn2cc(-c3ccccc3)sc2n1)c1ccccc1 [Compound A27]	10 to 100	> 75000
CC(C)(C)OC(=O)N1CCCC1c1nc(-c2ccc(-c3cn4cc(-c5ccc(-c6cnc([C@@H]7CCCN7C(=O)OC(C)(C)C)[nH]6)cc5)sc4n3)cc2)c[nH]1 (stereo partly shown) [Compound A157]	10 to 100	> 75000
COC(=O)N[C@H](C(=O)N1CCCC1c1ncc(-c2ccc(-c3cc4sc(Br)cc4s3)cc2)[nH]1)C(C)C (stereo partly shown) [Compound A168]	10 to 100	10000 to 75000
CC(C)(C)OC(=O)N1CCC[C@H]1c1ncc(-c2ccc(-c3cn4c(-c5ccccc5)csc4n3)cc2)[nH]1 [Compound A158]	> 100	10000 to 75000
COC(=O)N[C@H](C(=O)N1CCC[C@H]1C(=O)Nc1cn2cc(-c3cccc(NC(=O)[C@@H]4CCCN4C(=O)[C@H](NC(=O)OC)c4ccccc4)c3)sc2n1)C(C)C [Compound A149]	10 to 100	10000 to 75000
COC(=O)N[C@H](C(=O)N1CCCC1c1ncc(-c2cn3cc(-c4ccc(Cl)cc4)sc3n2)[nH]1)C(C)C (stereo partly shown) [Compound A153]	10 to 100	10000 to 75000
COC(=O)N[C@H](C(=O)N1CCC[C@H]1c1ncc(-c2ccc(-c3csc4c(Br)csc34)cc2)[nH]1)C(C)C [Compound A155, [(S)-1-((S)-2-{4-[4-(6-bromo-thieno[3,2-b]thiophen-3-yl)-phenyl]-1H-imidazol-2-yl}-pyrrolidine-1-carbonyl)-2-methyl-propyl]-carbamic acid methyl ester]	10 to 100	10000 to 75000
COC(=O)N[C@H](C(=O)N1CCC[C@H]1c1ncc(-c2ccc(-c3cn4cc(NC(=O)[C@@H]5CCCN5C(=O)[C@H](NC(=O)OC(C)(C)C)c5ccccc5)nc4s3)cc2)[nH]1)C(C)C [Compound A1, (S,S,S,R)-[1-(2-{5-[4-(6-{[1-(2-tert-butoxycarbonylamino-2-phenyl-acetyl)-pyrrolidine-2-carbonyl]-amino}imidazo[2,1-b]thiazol-2-yl)-phenyl]-1H-imidazol-2-yl}pyrrolidine-1-carbonyl)-2-methyl-propyl]-carbamic acid methyl ester]	< 1	> 75000
COC(=O)N[C@H](C(=O)N1CCCC1c1ncc(-c2ccc(-c3csc4c(-c5cnc(C6CCCN6C(=O)OCc6ccccc6)[nH]5)csc34)cc2)[nH]1)C(C)C (stereo partly shown) [Compound A49]	< 1	> 75000
COC(=O)N[C@H](C(=O)N1CCC[C@H]1c1ncc(-c2ccc(-c3cn4cc(NC(=O)[C@@H]5CCCN5)nc4s3)cc2)[nH]1)C(C)C [Compound A150]	10 to 100	10000 to 75000
COC(=O)N[C@@H](C(=O)N1CCC[C@H]1C(=O)Nc1ccc(-c2cn3cc(NC(=O)[C@@H]4CCCN4C(=O)[C@H](NC(=O)OC)c4ccccc4)nc3s2)cc1)c1ccccc1 [Compound A79]	< 1	> 75000
COC(=O)N[C@@H](C(=O)N1CCC[C@H]1C(=O)Nc1ccc(C#Cc2cn3cc(NC(=O)[C@@H]4CCCN4C(=O)[C@H](NC(=O)OC)c4ccccc4)nc3s2)cc1)c1ccccc1 [Compound A80]	< 1	> 75000
COC(=O)N[C@H](C(=O)N1CCCC1c1ncc(-c2ccc(-c3csc4c(-c5ccccc5)csc34)cc2)[nH]1)C(C)C (stereo partly shown) [Compound A103]	1 to 10	10000 to 75000
COC(=O)NC(C(=O)N1CCCC1c1ncc(-c2cn3cc(-c4ccc(-c5cnc([C@@H]6CCCN6C(=O)[C@H](NC(=O)OC)c6ccccc6)[nH]5)cc4)nc3s2)[nH]1)c1ccccc1 (stereo partly shown) [Compound A60]	< 1	> 75000
COC(=O)N[C@H](C(=O)N1CCCC1c1ncc(-c2ccc(-c3cn4c(-c5ccccc5)csc4n3)cc2)[nH]1)C(C)C (stereo partly shown) [Compound A162]	1 to 10	10000 to 75000
COC(=O)N[C@H](C(=O)N1CCCC1c1ncc(-c2ccc(-c3ccc(-c4nc5sccn5c4Cl)cc3)cc2)[nH]1)C(C)C (stereo partly shown) [Compound A154]	10 to 100	10000 to 75000
COC(=O)N[C@H](C(=O)N1CCC[C@H]1c1ncc(-c2ccc(-c3cn4cc(NC(=O)C5CCCN5C(=O)CNC(=O)OC(C)(C)C)nc4s3)cc2)[nH]1)C(C)C (stereo partly shown) [Compound A31]	10 to 100	> 75000
COC(=O)N[C@H](C(=O)N1CCCC1c1nc(-c2ccc(-c3c(C(=O)OC)[nH]c4c(-c5ccc(-c6cnc(C7CCCN7C(=O)[C@@H](NC(=O)OC)C(C)C)[nH]6)cc5)csc34)cc2)c[nH]1)C(C)C (stereo partly shown) [Compound A163]	< 1	> 75000
